The experiment concerns H9c2 cardiomyocytes, H2O2 injury protection, ATP luminescence, 2 h. In words: protection of H9c2 cells from H2O2 death, SAR follow-up, hydrogen peroxide, ATP luminescence (AID 623867).

Data on 35 molecules can be found in PubChem BioAssay AID623867 (Sanford-Burnham Center for Chemical Genomics, 2012).

The source made the active and inactive calls.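 Rule for the calls: active = mean IC50 of at most 10 µM; inactive = the rest.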

The IC50 is the concentration that gives 50% inhibition.

Turning to `COc1cccc(CN(C)C(=O)c2cc(-c3ccc(OC)c(OC)c3)nc3ccccc23)c1`, the IC50 is 10.7 µM (inactive). On to `COc1ccc(-n2cc(-c3ccccc3)c3c(N4CCCC4)ncnc32)cc1`, for which the IC50 was > 79 µM (inactive). Take `CC(C)CCNC(=O)C(c1ccc(O)cc1)N(C(=O)c1snc(C(N)=O)c1N)c1ccccc1F` (stereo not given): the IC50 is > 79 µM (inactive). As to `CCN(CC)C(=O)C(=O)c1c(-c2ccccc2)[nH]c2ccccc12`, the IC50 was > 79 µM (inactive). Then `COc1ccc(-c2cc(C(=O)NCc3ccccc3)c3ccccc3n2)cc1OC`, with > 79 µM (inactive). Regarding `COc1ccc(-n2cc(-c3ccccc3)c3c(NCc4ccccc4)ncnc32)cc1`, the IC50 was > 79 µM (inactive). For the molecule `COc1ccc(N2C(=O)c3ccccc3N3C(=O)c4c(ccc(OC)c4OC)C23)cc1` (stereo not given), the IC50 is 23.4 µM (inactive).

Take `COc1ccccc1N1C(=O)c2ccccc2N2C(=O)c3c(ccc(OC)c3OC)C12` (stereo not given): the IC50 was 30.4 µM (inactive).

Turning to `O=c1[nH]c2ccccc2cc1CN(Cc1ccco1)S(=O)(=O)c1ccc(F)cc1`, the IC50 was > 79 µM (inactive). With `COc1ccc(-c2cc(C(=O)N(C)Cc3ccc(OC)c(OC)c3OC)c3ccccc3n2)cc1OC`, the IC50 was 10.1 µM (inactive).

Turning to `COc1ccc2c(c1OC)C(=O)N1c3ccccc3C(=O)N(c3ccccc3C)C21` (stereo not given), the IC50 is 58.5 µM (inactive). Then `COc1cc(-c2cc(C(=O)Nc3cccc(C(C)=O)c3)c3ccccc3n2)cc(OC)c1OC`, with 8.45 µM; and `Cc1ccc(-c2[nH]c3ccccc3c2C(=O)C(=O)N(C)C)cc1`, with > 79 µM (inactive); and `COc1ccc2c(c1OC)C(=O)N1c3ccccc3C(=O)N(c3ccc(F)cc3)C21` (stereo not given), with 33.2 µM (inactive). In the case of `COc1ccc2c(c1OC)C(=O)N1c3ccccc3C(=O)N(c3cccc(Br)c3)C21` (stereo not given), the IC50 was 10.7 µM (inactive).

For the molecule `Cc1ccc2cc(CN(Cc3cccnc3)S(=O)(=O)c3ccc(F)cc3)c(=O)[nH]c2c1`, the IC50 was > 79 µM (inactive). Regarding `COCCNC(=O)C(c1ccc(O)cc1)N(C(=O)c1snc(C(N)=O)c1N)c1ccccc1F` (stereo not given), the IC50 was > 79 µM (inactive). For `COc1ccc(-c2cc(C(=O)N(C)C)c3ccccc3n2)cc1OC`, the IC50 is > 79 µM (inactive). As to `COc1ccc2c(=O)c(C(=O)N3CCN(S(=O)(=O)c4c(C)cc(C)cc4C)CC3)c[nH]c2c1`, the IC50 is > 79 µM (inactive).

Take `O=C(C(=O)N1CCCCC1)c1c(-c2ccccc2)[nH]c2ccccc12`: the IC50 was > 79 µM (inactive). For `Cc1ccc(C)c(S(=O)(=O)N2CCN(C(=O)c3cc4cc(C)ccc4nc3C)CC2)c1`, the IC50 was > 79 µM (inactive). On to `O=C1c2ccccc2N2C(=O)c3ccccc3[C@H]2N1c1ccccc1`, for which the IC50 is 29.4 µM (inactive). Under `O=C(C(=O)N1CCCC1)c1c(-c2ccccc2)[nH]c2ccccc12` stands > 79 µM (inactive); under `CCCN(CC(=O)Nc1ccccc1OC)C(=O)c1cc(-c2cccs2)nn1-c1ccccc1`, > 79 µM (inactive); under `COc1cccc(CN(C)C(=O)c2cc(-c3ccccc3)nc3ccc(C)cc23)c1OC`, > 79 µM (inactive). Under `COc1ccc(-n2cc(-c3ccccc3)c3c(N4CCCCC4)ncnc32)cc1` stands > 79 µM (inactive); under `Cc1ccc2cc(CN(C)S(=O)(=O)c3ccc(F)cc3)c(=O)[nH]c2c1`, > 79 µM (inactive). With `COCCn1c(SC(C(=O)Nc2cc(C)ccc2C)c2ccccc2)nc2ccccc2c1=O` (stereo not given), the IC50 was > 79 µM (inactive).

`Cc1ccccc1N(C(=O)c1snc(C(N)=O)c1N)C(C(=O)NCc1ccc(F)cc1)c1ccc(O)cc1` (stereo not given): the IC50 is > 79 µM (inactive).

The molecule `COc1ccc(-c2cc(C(=O)NCc3ccco3)c3ccccc3n2)cc1OC` displayed an IC50 of 41 µM. For the molecule `Cc1ccc(S(=O)(=O)N(Cc2cccnc2)Cc2cc3ccccc3[nH]c2=O)cc1`, the IC50 was > 79 µM (inactive).

Regarding `COc1cccc(NC(=O)CN(C)C(=O)c2cc(-c3cccs3)nn2-c2ccccc2)c1`, the IC50 was > 79 µM (inactive). In the case of `CCCn1c(SC(C(=O)Nc2cccc(OC)c2)c2ccccc2)nc2ccccc2c1=O` (stereo not given), the IC50 was > 79 µM (inactive). As for `COc1ccc2cc(C(=O)N3CCN(S(=O)(=O)c4cc(C)ccc4C)CC3)c(C)nc2c1`, the IC50 is > 79 µM (inactive). In the case of `CCN(CC)S(=O)(=O)c1cc(C(=O)N2CCN(Cc3cccc4cccnc34)CC2)ccc1C`, the IC50 is > 79 µM (inactive).
